Laboratory results from paper PMC3494461 (Journal of the American Chemical Society, 2012).

Legend:
DXP synthase [1] = target: T1, DXP synthase (Escherichia coli, UniProt P77488); assay: steady-state DXP formation, Michaelis-Menten plot; format: biochemical; details: D-GAP supplied as D,L-GAP; with pyruvate
T1 sequence (P77488 2-620): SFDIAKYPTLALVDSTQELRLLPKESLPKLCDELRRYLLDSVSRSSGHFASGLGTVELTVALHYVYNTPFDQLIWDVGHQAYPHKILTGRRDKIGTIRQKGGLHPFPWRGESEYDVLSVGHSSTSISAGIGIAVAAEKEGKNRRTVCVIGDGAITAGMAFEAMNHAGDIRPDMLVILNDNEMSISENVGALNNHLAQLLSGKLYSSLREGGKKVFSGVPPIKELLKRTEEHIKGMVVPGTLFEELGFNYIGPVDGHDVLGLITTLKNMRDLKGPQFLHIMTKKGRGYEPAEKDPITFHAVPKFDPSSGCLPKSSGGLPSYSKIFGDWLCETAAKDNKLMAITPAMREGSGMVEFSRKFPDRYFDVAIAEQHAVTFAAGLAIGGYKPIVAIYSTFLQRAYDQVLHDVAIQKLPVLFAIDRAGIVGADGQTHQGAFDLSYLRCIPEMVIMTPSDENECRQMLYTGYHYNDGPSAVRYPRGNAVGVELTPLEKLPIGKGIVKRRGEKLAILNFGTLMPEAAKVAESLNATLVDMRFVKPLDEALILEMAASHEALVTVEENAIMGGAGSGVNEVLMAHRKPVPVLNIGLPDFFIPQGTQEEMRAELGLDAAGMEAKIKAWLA

DXP synthase [2] = target: T1, DXP synthase; assay: near-UV CD of enzyme-bound ThDP; format: binding; details: AP tautomer dominant at pH 7.98
DXP synthase [3] = target: T1, DXP synthase; assay: CD titration at […] nm; format: binding

Question: With O=C[C@H](O)COP(=O)(O)O [D-GAP] as the molecule, how does the Km (DXP synthase [1]) read?
Answer: Michaelis-Menten plot to determine the Km for D-GAP

Question: Which “near-UV CD of enzyme-bound ThDP (negative band at 320 nm)” value (DXP synthase [2]) does the source give for Cc1ncc(C[n+]2csc(CCOP(=O)(O)OP(=O)(O)O)c2C)c(N)n1 [ThDP] here?
Answer: suggesting the preponderance of the AP tautomer of ThDP bound to the enzyme

Question: Which Kd (DXP synthase [3]) does the source give for CC(=O)C(=O)O [pyruvate] here?
Answer: ~90 µM
